IC50 data for 18 compounds are collected here from patent US9315505B2, “Heterocyclic compounds and uses thereof” (INTELLIKINE LLC, priority 2009, dated 2016).

Format in all cases: biochemical
In experiment [1] the target is T1, PI3K δ (Homo sapiens, UniProt O00329).
T1 construct: purchased Upstate
Put plainly: In vitro IC50, PI3K δ (p110δ/p85α inhibition assay). The settings on record: in vitro kinase assay; read-out: IC50(nM) PI3K δ. The procedure:
(§1) IC50 values are measured using either a standard TLC assay for lipid kinase activity (described below) or a high-throughput membrane capture assay. Kinase reactions are performed by preparing a reaction mixture containing kinase, inhibitor (2% DMSO final concentration), buffer (25 mM HEPES, pH 7.4, 10 mM MgCl2), and freshly sonicated phosphatidylinositol (100 μg/ml). Reactions are initiated by the addition of ATP containing 10 μCi of γ-32P-ATP to a final concentration 10 or 100 μM and allowed to proceed for 5 minutes at room temperature. For TLC analysis, reactions are then terminated by the addition of 105 μl 1N HCl followed by 160 μl CHCl3:MeOH (1:1). The biphasic mixture is vortexed, briefly centrifuged, and the organic phase is transferred to a new tube using a gel loading pipette tip precoated with CHCl3. This extract is spotted on TLC plates and developed for 3-4 hours in a 65:35 solution of n-propanol:1M acetic acid. The TLC plates are then dried, exposed to a phosphorimager screen (Storm, Amersham), and quantitated.
(§2) Other commercial kits or systems for assaying PI3-K activities are available. The commercially available kits or systems can be used to screen for inhibitors and/or agonists of PI3-Ks including but not limited to PI 3-Kinase α, β, δ, and γ. An exemplary system is PI 3-Kinase (human) HTRF™ Assay from Upstate. […] Briefly, the assay is a time resolved FRET assay that indirectly measures PIP3 product formed by the activity of a PI3-K. The kinase reaction is performed in a microtitre plate (e.g., a 384 well microtitre plate). The total reaction volume is approximately 20 ul per well. In the first step, each well receives 2 ul of test compound in 20% dimethylsulphoxide resulting in a 2% DMSO final concentration. Next, approximately 14.5 ul of a kinase/PIP2 mixture (diluted in 1× reaction buffer) is added per well for a final concentration of 0.25-0.3 ug/ml kinase and 10 uM PIP2. The plate is sealed and incubated for 15 minutes at room temperature. To start the reaction, 3.5 ul of ATP (diluted in 1× reaction buffer) is added per well for a final concentration of 10 uM ATP. The plate is sealed and incubated for 1 hour at room temperature. The reaction is stopped by adding 5 ul of Stop Solution per well and then 5 ul of Detection Mix is added per well. The plate is sealed, incubated for 1 hour at room temperature, and then read on an appropriate plate reader. Data is analyzed and IC50s are generated using GraphPad Prism 5.

Experiment [2] concerns the target T2, PI3K γ (Homo sapiens, UniProt P48736).
T2 construct: purchased Sigma
Put plainly: In vitro IC50, PI3K γ (p110γ inhibition assay). The note with it: in vitro kinase assay. The procedure:
as §1, with “Class I PI3-Ks can be either purchased (p110α/p85α, p110β/p85α, p110δ/p85α from Upstate, and p110γ from Sigma) or expressed as previously described (Knight et al., 2004). IC50” for “IC50”, “quantitated. For each compound, kinase activity is measured at 10-12 inhibitor concentrations representing two-fold dilutions from the highest concentration tested (typically, 200 μM).” for “quantitated.”
as §2

Experiment [3] addresses T3, PI3K α (Homo sapiens, UniProt P42336).
T3 construct: purchased Upstate
Nature of the experiment: In vitro IC50, PI3K α (p110α/p85α inhibition assay). The settings on record: in vitro kinase assay; read-out: IC50(nM) PI3K α. The procedure:
as §1, §2

T3 sequence (P42336 whole entry): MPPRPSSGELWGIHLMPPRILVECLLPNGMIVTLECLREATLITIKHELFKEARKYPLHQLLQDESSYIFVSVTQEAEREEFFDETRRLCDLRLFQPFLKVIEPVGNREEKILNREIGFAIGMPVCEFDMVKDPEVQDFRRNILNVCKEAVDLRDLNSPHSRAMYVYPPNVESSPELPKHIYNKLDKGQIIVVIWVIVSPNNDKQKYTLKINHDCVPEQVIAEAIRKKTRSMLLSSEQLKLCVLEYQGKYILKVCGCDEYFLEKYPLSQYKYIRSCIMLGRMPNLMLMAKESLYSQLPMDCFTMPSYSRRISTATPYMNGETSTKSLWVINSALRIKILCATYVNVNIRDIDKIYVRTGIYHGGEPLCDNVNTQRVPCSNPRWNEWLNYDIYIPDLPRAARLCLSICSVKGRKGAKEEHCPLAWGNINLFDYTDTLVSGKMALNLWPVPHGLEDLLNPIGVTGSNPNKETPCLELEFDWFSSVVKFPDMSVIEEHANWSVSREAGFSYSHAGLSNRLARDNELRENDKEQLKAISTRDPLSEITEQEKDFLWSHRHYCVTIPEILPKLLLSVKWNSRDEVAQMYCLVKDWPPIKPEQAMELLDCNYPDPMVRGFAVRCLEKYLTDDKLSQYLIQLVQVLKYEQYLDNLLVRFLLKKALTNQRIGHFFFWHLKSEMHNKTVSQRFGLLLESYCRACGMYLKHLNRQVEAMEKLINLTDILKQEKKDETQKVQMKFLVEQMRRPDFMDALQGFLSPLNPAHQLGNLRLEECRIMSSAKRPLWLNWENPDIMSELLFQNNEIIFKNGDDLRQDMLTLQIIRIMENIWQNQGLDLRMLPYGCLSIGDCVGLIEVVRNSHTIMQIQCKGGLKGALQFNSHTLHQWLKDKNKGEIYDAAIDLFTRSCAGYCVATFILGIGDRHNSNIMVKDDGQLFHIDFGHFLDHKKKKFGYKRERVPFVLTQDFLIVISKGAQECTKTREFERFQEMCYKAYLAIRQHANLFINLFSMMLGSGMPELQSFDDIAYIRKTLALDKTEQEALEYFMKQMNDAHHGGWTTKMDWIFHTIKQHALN
T3 sequence (P27986 whole entry partner): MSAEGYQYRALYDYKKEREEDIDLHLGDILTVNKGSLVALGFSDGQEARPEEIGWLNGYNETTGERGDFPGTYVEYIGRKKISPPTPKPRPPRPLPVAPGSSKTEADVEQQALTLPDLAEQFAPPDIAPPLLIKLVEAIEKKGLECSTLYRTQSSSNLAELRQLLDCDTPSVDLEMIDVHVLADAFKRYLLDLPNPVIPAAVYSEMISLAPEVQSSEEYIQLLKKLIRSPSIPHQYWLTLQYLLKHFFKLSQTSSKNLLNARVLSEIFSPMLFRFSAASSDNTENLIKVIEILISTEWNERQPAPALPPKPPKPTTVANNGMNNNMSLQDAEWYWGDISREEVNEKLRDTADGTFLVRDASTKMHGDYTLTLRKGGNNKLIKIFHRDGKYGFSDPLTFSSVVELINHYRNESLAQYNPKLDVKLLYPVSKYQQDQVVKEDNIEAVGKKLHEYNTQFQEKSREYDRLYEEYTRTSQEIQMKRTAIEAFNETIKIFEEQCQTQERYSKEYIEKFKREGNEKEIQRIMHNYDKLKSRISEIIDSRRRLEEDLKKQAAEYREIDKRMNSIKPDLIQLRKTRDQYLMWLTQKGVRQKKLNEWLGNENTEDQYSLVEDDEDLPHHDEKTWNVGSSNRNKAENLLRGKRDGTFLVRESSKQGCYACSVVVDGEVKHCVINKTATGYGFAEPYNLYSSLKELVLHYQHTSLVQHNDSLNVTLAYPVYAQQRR
T1 sequence (O00329 whole entry): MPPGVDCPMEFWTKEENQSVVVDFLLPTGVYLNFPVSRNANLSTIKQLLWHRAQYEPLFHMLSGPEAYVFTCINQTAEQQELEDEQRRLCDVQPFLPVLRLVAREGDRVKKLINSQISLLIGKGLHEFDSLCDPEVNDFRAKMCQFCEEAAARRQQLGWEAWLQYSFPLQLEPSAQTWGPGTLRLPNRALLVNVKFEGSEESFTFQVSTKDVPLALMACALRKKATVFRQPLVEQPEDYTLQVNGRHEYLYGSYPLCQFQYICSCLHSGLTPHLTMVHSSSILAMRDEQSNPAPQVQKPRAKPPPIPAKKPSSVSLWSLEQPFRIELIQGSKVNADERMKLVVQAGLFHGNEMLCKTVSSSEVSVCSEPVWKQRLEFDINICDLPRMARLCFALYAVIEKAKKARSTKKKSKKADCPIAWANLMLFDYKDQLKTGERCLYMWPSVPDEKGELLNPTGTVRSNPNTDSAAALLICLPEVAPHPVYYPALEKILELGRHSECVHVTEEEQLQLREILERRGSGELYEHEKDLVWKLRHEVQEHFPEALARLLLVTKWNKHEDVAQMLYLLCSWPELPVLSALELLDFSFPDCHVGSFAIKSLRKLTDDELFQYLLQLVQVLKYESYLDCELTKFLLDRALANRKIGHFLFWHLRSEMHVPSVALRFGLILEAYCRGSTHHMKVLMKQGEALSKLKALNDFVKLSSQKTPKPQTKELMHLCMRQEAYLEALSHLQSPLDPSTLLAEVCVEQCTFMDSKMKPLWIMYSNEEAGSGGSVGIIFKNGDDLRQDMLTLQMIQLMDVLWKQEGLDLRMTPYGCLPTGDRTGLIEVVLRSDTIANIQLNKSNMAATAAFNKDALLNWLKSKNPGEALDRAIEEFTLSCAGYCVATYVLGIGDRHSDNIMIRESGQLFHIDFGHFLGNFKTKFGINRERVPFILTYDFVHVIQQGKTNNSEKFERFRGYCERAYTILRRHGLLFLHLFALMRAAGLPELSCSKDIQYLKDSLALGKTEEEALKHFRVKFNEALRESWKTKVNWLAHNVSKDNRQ
T1 sequence (P27986 whole entry partner): as the sequence (P27986 whole entry partner) above
T2 sequence (P48736 whole entry): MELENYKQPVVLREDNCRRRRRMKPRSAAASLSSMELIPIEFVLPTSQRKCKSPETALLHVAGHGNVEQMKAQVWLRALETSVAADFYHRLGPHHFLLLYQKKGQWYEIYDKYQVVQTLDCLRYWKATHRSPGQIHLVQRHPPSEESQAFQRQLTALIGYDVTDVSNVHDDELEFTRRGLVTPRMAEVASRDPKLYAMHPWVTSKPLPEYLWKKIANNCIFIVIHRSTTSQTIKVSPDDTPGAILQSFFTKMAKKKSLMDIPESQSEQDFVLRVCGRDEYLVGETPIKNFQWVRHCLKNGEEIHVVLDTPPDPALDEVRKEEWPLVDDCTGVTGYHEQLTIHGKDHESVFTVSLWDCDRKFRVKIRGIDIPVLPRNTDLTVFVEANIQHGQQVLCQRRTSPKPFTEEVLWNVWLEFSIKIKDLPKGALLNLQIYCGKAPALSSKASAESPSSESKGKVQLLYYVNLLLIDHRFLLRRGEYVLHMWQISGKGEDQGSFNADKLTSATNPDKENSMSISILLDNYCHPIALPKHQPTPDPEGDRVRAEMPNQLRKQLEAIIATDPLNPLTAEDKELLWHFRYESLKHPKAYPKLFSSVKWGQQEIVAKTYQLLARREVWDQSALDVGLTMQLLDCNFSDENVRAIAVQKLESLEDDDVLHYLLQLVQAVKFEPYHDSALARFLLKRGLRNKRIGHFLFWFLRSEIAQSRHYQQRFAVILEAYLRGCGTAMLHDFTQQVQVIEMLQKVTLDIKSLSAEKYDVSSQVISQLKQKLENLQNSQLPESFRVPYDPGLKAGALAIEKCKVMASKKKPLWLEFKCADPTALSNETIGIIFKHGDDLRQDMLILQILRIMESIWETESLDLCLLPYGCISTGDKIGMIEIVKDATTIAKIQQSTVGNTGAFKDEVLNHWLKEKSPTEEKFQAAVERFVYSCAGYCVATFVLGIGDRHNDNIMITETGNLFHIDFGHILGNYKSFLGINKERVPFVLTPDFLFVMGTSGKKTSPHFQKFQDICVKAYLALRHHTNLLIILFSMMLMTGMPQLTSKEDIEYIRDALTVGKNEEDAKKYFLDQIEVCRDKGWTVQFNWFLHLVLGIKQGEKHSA

Consider `CC(=O)N1CCN(c2nc([C@H](C)Nc3ncnc4[nH]cnc34)nc3cccc(Cl)c23)CC1` [Compound 96], for which the IC50 was less than 1000 nM in experiment [1], less than 1000 nM in experiment [2] and greater than 10000 nM in experiment [3].
With `C[C@H](Nc1ncnc2[nH]cnc12)c1cc2ccccc2c(-c2cccnc2)n1` [Compound 76], the figures for the IC50 in experiment [1], in experiment [2] and in experiment [3] were less than 1000 nM, less than 10000 nM and greater than 10000 nM, respectively.
On the same counts, the results for `C[C@H](Nc1ncnc2[nH]cnc12)c1cc2cccc(Cl)c2c(OCC2CCN(C)CC2)n1` [Compound 73] are less than 100 nM, less than 10000 nM and less than 10000 nM.
For `C[C@H](Nc1ncnc2[nH]cnc12)c1cc2cccc(Cl)c2c(N(C)C)n1` [Compound 71] the same measures were less than 100 nM, less than 1000 nM and less than 10000 nM.
For `C[C@H](Nc1ncnc2[nH]cnc12)c1cc2cccc(Cl)c2c(OCC2CCN(S(C)(=O)=O)CC2)n1` [Compound 75], the IC50 in experiment [1] was less than 100 nM; in experiment [2] it was greater than 10000 nM; in experiment [3], greater than 10000 nM.
Turning to `Cc1cccc2cc(C(C)Nc3ncnc4[nH]cnc34)nc(OC3CCNCC3)c12` (stereo not drawn) [Compound 14], the half-inhibitory concentration (IC50) was less than 1000 nM in experiment [1], greater than 10000 nM in experiment [2] and greater than 10000 nM in experiment [3].
As to `C[C@H](Nc1ncnc2[nH]cnc12)c1cc2cccc(Cl)c2c(OCCN2CCN(S(C)(=O)=O)CC2)n1` [Compound 74], the IC50 was less than 100 nM in experiment [1], less than 10000 nM in experiment [2] and greater than 10000 nM in experiment [3].
For `C[C@H](Nc1ncnc2[nH]cnc12)c1cc2cccc(Cl)c2c(CCN2CCC2)n1` [Compound 88] the same measures were less than 100 nM, less than 10000 nM and less than 10000 nM.
For `CC(=O)N1CCN(c2nc(Cn3nc(-c4cn[nH]c4)c4c(N)ncnc43)cc3cccc(Cl)c23)CC1` [Compound 70] the same measures were less than 100 nM, less than 10000 nM and greater than 10000 nM.
On the same counts, the results for `C[C@H](Nc1ncnc2[nH]cnc12)c1cc2cccc(Cl)c2c(N2CCN(S(C)(=O)=O)CC2)n1` [Compound 64] are less than 100 nM, less than 1000 nM and less than 10000 nM.
For `CC(Nc1ncnc2[nH]cnc12)c1cc2cccc(Cl)c2c(CCN2CCCC2)n1` (stereo not drawn) [Compound 79], the IC50 in experiment [1] is less than 100 nM; in experiment [2], less than 10000 nM; in experiment [3] it was greater than 10000 nM.
Regarding `Cc1cccc2cc(CNc3ncnc4[nH]cnc34)nc(OC3CCN(C(C)C)CC3)c12` [Compound 10], the figures for the IC50 in experiment [1], in experiment [2] and in experiment [3] were less than 100 nM, greater than 10000 nM and greater than 10000 nM, respectively.
With `CC(=O)N1CCN(c2nc([C@H](C)Nc3ncnc4[nH]cnc34)cc3cccc(Cl)c23)CC1` [Compound 69], the IC50 was less than 1000 nM in experiment [1], greater than 10000 nM in experiment [2] and greater than 10000 nM in experiment [3].
`CC(=O)N1CCC(Nc2nc(C(C)Nc3ncnc4[nH]cnc34)cc3cccc(C)c23)CC1` (stereo not drawn) [Compound 49]: the IC50 was less than 1000 nM in experiment [1], less than 10000 nM in experiment [2] and greater than 10000 nM in experiment [3].
For `CC(=O)N1CCC(Oc2nc(C(C)Nc3ncnc4[nH]cnc34)cc3cccc(C)c23)CC1` (stereo not drawn) [Compound 47] the same measures were less than 100 nM, less than 1000 nM and greater than 10000 nM.
For `C[C@H](Nc1ncnc2[nH]cnc12)c1cc2cccc(Cl)c2c(CCN2CC(F)(F)C2)n1` [Compound 89] the same measures were less than 100 nM, less than 1000 nM and less than 10000 nM.
Turning to `Cc1cccc2cc([C@@H](C)Nc3ncnc4[nH]cnc34)nc(OC3CCN(S(C)(=O)=O)CC3)c12` [Compound 87], the IC50 is less than 10000 nM in experiment [1], greater than 10000 nM in experiment [2] and greater than 10000 nM in experiment [3].
With `Cc1cccc2cc(CN(C)c3ncnc4[nH]cnc34)nc(OC3CCN(C(C)C)CC3)c12` [Compound 12], the IC50 was less than 1000 nM in experiment [1], greater than 10000 nM in experiment [2] and greater than 10000 nM in experiment [3].
